Test results taken from the NIST ThermoML archive (doi:10.1016/j.jct.2019.04.018).

Assay: xn = mol fraction of the nth substance listed
Conditions: 100 kPa, Liquid; for viscosity: Capillary tube (Ostwald / Ubbelohde) method; for speed of sound: Frequency=2 MHz, Single path-length method; for mass density: Vibrating tube method

C=COCCCC [1-(ethenyloxy)butane] + C=COC(C)=O
Conditions | mass density, 303.15 K [kg/m3] | mass density, 308.15 K [kg/m3] | mass density, 313.15 K [kg/m3] | speed of sound, 303.15 K [m/s] | speed of sound, 308.15 K [m/s] | speed of sound, 313.15 K [m/s] | viscosity, 303.15 K [mPa·s] | viscosity, 308.15 K [mPa·s] | viscosity, 313.15 K [mPa·s]
x2 = 0 | 769 | 763.9 | 758.8 | 1086 | 1076 | 1066 | 0.386 | 0.373 | 0.352
x2 = 0.1022 | 779.6 | 774.4 | 769.1 | 1086 | 1076 | 1066 | 0.385 | 0.368 | 0.35
x2 = 0.2014 | 790.7 | 785.4 | 780 | 1086 | 1076 | 1065 | 0.381 | 0.364 | 0.344
x2 = 0.2948 | 801.9 | 796.5 | 791 | 1087 | 1075 | 1064 | 0.377 | 0.36 | 0.339
x2 = 0.4002 | 815.6 | 810 | 804.4 | 1087 | 1075 | 1064 | 0.374 | 0.357 | 0.338
x2 = 0.502 | 829.9 | 824.1 | 818.3 | 1087 | 1074 | 1062 | 0.372 | 0.355 | 0.336
x2 = 0.5997 | 844.6 | 838.7 | 832.8 | 1088 | 1074 | 1062 | 0.373 | 0.357 | 0.337
x2 = 0.6979 | 860.6 | 854.5 | 848.4 | 1088 | 1074 | 1061 | 0.375 | 0.358 | 0.338
x2 = 0.7949 | 877.7 | 871.6 | 865.3 | 1089 | 1074 | 1059 | 0.378 | 0.36 | 0.341
x2 = 0.8999 | 898 | 891.9 | 885.5 | 1090 | 1074 | 1057 | 0.383 | 0.365 | 0.346

C=COC(C)=O [vinyl acetate] + CC(C)OC(C)C
Conditions | mass density, 303.15 K [kg/m3] | mass density, 308.15 K [kg/m3] | mass density, 313.15 K [kg/m3] | speed of sound, 303.15 K [m/s] | speed of sound, 308.15 K [m/s] | speed of sound, 313.15 K [m/s] | viscosity, 303.15 K [mPa·s] | viscosity, 308.15 K [mPa·s] | viscosity, 313.15 K [mPa·s]
x1 = 0.1031 | 727.4 | 722.1 | 716.5 | 990 | 970 | 948 | 0.308 | 0.293 | 0.28
x1 = 0.1977 | 741.4 | 736 | 730.4 | 996 | 976 | 955 | 0.313 | 0.297 | 0.284
x1 = 0.3004 | 757.8 | 752.3 | 746.6 | 1004 | 985 | 964 | 0.318 | 0.302 | 0.288
x1 = 0.4002 | 775 | 769.4 | 763.7 | 1013 | 993 | 972 | 0.324 | 0.307 | 0.294
x1 = 0.5001 | 793.8 | 788.1 | 782.3 | 1022 | 1002 | 982 | 0.33 | 0.313 | 0.299
x1 = 0.6027 | 814.8 | 809.1 | 803.2 | 1032 | 1012 | 992 | 0.338 | 0.32 | 0.306
x1 = 0.7001 | 836.9 | 831 | 825 | 1042 | 1024 | 1003 | 0.347 | 0.329 | 0.313
x1 = 0.801 | 861.9 | 856 | 849.8 | 1056 | 1038 | 1016 | 0.359 | 0.34 | 0.323
x1 = 0.9014 | 889.5 | 883.5 | 877.2 | 1072 | 1053 | 1032 | 0.372 | 0.353 | 0.335
x1 = 1 | 919.4 | 913.5 | 907.3 | 1092 | 1074 | 1054 | 0.388 | 0.37 | 0.352

C=COC(C)=O [vinyl acetate] + CCCCOCCCC
Conditions | mass density, 303.15 K [kg/m3] | mass density, 308.15 K [kg/m3] | mass density, 313.15 K [kg/m3] | speed of sound, 303.15 K [m/s] | speed of sound, 308.15 K [m/s] | speed of sound, 313.15 K [m/s] | viscosity, 303.15 K [mPa·s] | viscosity, 308.15 K [mPa·s] | viscosity, 313.15 K [mPa·s]
x1 = 0.0956 | 767.4 | 763 | 758.2 | 1141 | 1123 | 1107 | 0.575 | 0.54 | 0.509
x1 = 0.1922 | 776.2 | 771.6 | 767 | 1136 | 1118 | 1100 | 0.549 | 0.517 | 0.489
x1 = 0.3008 | 787.4 | 782.6 | 777.8 | 1131 | 1112 | 1093 | 0.522 | 0.493 | 0.467
x1 = 0.3962 | 798.4 | 793.5 | 788.5 | 1126 | 1107 | 1087 | 0.499 | 0.472 | 0.447
x1 = 0.5008 | 812.2 | 807.1 | 801.9 | 1120 | 1102 | 1080 | 0.476 | 0.451 | 0.427
x1 = 0.5997 | 827.4 | 822 | 816.6 | 1115 | 1096 | 1074 | 0.455 | 0.431 | 0.409
x1 = 0.6995 | 845 | 839.4 | 833.7 | 1110 | 1091 | 1068 | 0.436 | 0.414 | 0.393
x1 = 0.7995 | 865.6 | 859.8 | 853.8 | 1104 | 1085 | 1063 | 0.417 | 0.398 | 0.379
x1 = 0.8998 | 890 | 883.8 | 877.6 | 1099 | 1080 | 1058 | 0.401 | 0.383 | 0.365
x1 = 1 | 919.4 | 913.5 | 907.3 | 1092 | 1074 | 1054 | 0.388 | 0.37 | 0.352

C=COC(C)=O [vinyl acetate] + COc1ccccc1
Conditions | mass density, 303.15 K [kg/m3] | mass density, 308.15 K [kg/m3] | mass density, 313.15 K [kg/m3] | speed of sound, 303.15 K [m/s] | speed of sound, 308.15 K [m/s] | speed of sound, 313.15 K [m/s] | viscosity, 303.15 K [mPa·s] | viscosity, 308.15 K [mPa·s] | viscosity, 313.15 K [mPa·s]
x1 = 0.0981 | 979.4 | 974.6 | 969.5 | 1350 | 1329 | 1310 | 0.843 | 0.775 | 0.724
x1 = 0.199 | 974 | 969 | 963.8 | 1316 | 1294 | 1274 | 0.766 | 0.708 | 0.664
x1 = 0.3015 | 968.3 | 963.1 | 957.8 | 1283 | 1260 | 1239 | 0.696 | 0.647 | 0.609
x1 = 0.3972 | 962.6 | 957.4 | 951.9 | 1253 | 1230 | 1208 | 0.638 | 0.595 | 0.562
x1 = 0.5005 | 956.2 | 950.8 | 945.2 | 1223 | 1199 | 1177 | 0.583 | 0.546 | 0.515
x1 = 0.5979 | 949.8 | 944.2 | 938.5 | 1194 | 1171 | 1150 | 0.535 | 0.503 | 0.476
x1 = 0.6988 | 942.8 | 937 | 931.1 | 1167 | 1144 | 1122 | 0.492 | 0.464 | 0.439
x1 = 0.8029 | 935.1 | 929.2 | 923.1 | 1139 | 1118 | 1096 | 0.451 | 0.427 | 0.406
x1 = 0.9005 | 927.5 | 921.5 | 915.3 | 1115 | 1095 | 1074 | 0.418 | 0.397 | 0.377
x1 = 1 | 919.4 | 913.5 | 907.3 | 1092 | 1074 | 1054 | 0.388 | 0.37 | 0.352
